In PubChem BioAssay (NCI) one finds TGI data, which are given here for twelve molecules.

Among the test systems are HCC-2998 colon; HCT-116 colon; HCT-15 colon; HS 578T breast; KM12 colon; MDA-MB-435; NCI-H226 lung; PC-3 prostate; SK-MEL-28 melanoma; U251 CNS; SF-539 CNS; SN12C renal; MALME-3M melanoma.
Holding throughout (assay): inhibition of tumour cell growth, NCI panel, 48 h

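Dose response: 5 concentrations. Exposure: 48 h. Format: 96-well plates. Endpoint: linear interpolation; highest concentration if not reached. TGI marks complete inhibition of growth.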 Where only a bound is given, the exact number is not on record here.

Take `CN1C(=O)C(C#N)C2C[C@@]1(C)Oc1ccccc12` (stereo not given in full): the TGI in the assay on HCC-2998 colon, with HCT-116 colon, in the assay with HCT-15 colon, in the assay on HS 578T breast, in the assay on KM12 colon and in the assay with MDA-MB-435 was above 100 µM each time. For the same molecule, the TGI with NCI-H226 lung, with PC-3 prostate, in the assay with SK-MEL-28 melanoma and in the assay with U251 CNS was above 100 µM each time.
For the molecule `CC(C)N(C(=O)C12C3(C(=O)C(C)(C)C)C4C5(C#N)C3C1(C(=O)C(C)(C)C)C5C42C(=O)C(C)(C)C)C(C)C` (stereo not given), the TGI in the assay on HCC-2998 colon, in the assay on HCT-116 colon, with HCT-15 colon, in the assay on HS 578T breast, with KM12 colon and in the assay on MDA-MB-435 was above 100 µM throughout. Besides, the TGI in the assay on PC-3 prostate, with SF-539 CNS, with SK-MEL-28 melanoma, in the assay on SN12C renal and in the assay with U251 CNS was above 100 µM throughout.
Consider `N#CCCN(CCCN(C(=O)Nc1ccc(NC(=O)N(CCCN(CCC#N)C(N)=O)c2ccccc2)cc1)c1ccccc1)C(N)=O`, for which the TGI in the assay on HCC-2998 colon, in the assay with HCT-116 colon, in the assay with HCT-15 colon, with HS 578T breast, with KM12 colon and in the assay with MALME-3M melanoma was above 100 µM throughout. Moreover, the TGI with MDA-MB-435, in the assay on NCI-H226 lung, in the assay with PC-3 prostate, in the assay on SF-539 CNS, in the assay with SK-MEL-28 melanoma and with U251 CNS was above 100 µM throughout.
With `COC(=O)/C=C1/OC(c2ccc(C)cc2C)=CC1=O`, the TGI amounted to 30.5 µM in the assay with HCC-2998 colon; 24.1 µM in the assay on HCT-116 colon; 29.3 µM in the assay with HCT-15 colon; 81.7 µM in the assay with HS 578T breast; 31.8 µM in the assay with KM12 colon; 29.9 µM in the assay on MALME-3M melanoma. For the same molecule, the TGI worked out at 30.1 µM with MDA-MB-435; 48.9 µM with NCI-H226 lung; 34.9 µM in the assay on PC-3 prostate; 33 µM with SF-539 CNS; 36.3 µM in the assay on SK-MEL-28 melanoma; 31.1 µM with U251 CNS.
In the case of `COc1ccc2oc(=O)c(-c3csc(-c4ccccc4)n3)cc2c1`, the TGI is above 100 µM with HCC-2998 colon; above 100 µM in the assay with HCT-116 colon; above 100 µM in the assay on HCT-15 colon; 94.5 µM in the assay on HS 578T breast; above 100 µM in the assay on KM12 colon; above 100 µM in the assay on MDA-MB-435. Further, the TGI in the assay on NCI-H226 lung was above 100 µM; in the assay on PC-3 prostate, above 100 µM; with SF-539 CNS, 31.2 µM; in the assay with SK-MEL-28 melanoma, above 100 µM; with U251 CNS it was 52.4 µM.
On to `O=C(/C=C/c1ccccc1Br)c1ccccc1`, for which the TGI in the assay on HCC-2998 colon was determined as 7.68 µM; with HCT-116 colon, 3.85 µM; with HCT-15 colon, 6.36 µM; with HS 578T breast it was 11.3 µM; in the assay on KM12 colon it was 6.53 µM; in the assay with MDA-MB-435, 6.57 µM. In addition, the TGI with NCI-H226 lung is 36.6 µM; in the assay with PC-3 prostate, 23.5 µM; with SF-539 CNS it was 15.6 µM; in the assay on SK-MEL-28 melanoma, 15.8 µM; in the assay on SN12C renal, 21.7 µM; in the assay on U251 CNS it was 2.9 µM.
In the case of `Cc1ccc(/C=C2\CCCCCC2=O)cc1`, the TGI in the assay with HCC-2998 colon, with HCT-116 colon, with HCT-15 colon, in the assay with HS 578T breast, in the assay on KM12 colon and in the assay on MALME-3M melanoma was above 100 µM each time. Moreover, the TGI with MDA-MB-435, in the assay on NCI-H226 lung, in the assay on PC-3 prostate, in the assay on SK-MEL-28 melanoma, in the assay on SN12C renal and in the assay on U251 CNS was above 100 µM each time.
Regarding `CC(C)(C)CN1[C@@H]2CCCC[C@H]2N(CC(C)(C)C)P1(=O)C(O)/C=C/c1ccccc1` (stereo not given in full), the TGI in the assay on HCC-2998 colon was 92.6 µM; in the assay with HCT-116 colon it was above 100 µM; in the assay on HCT-15 colon, above 100 µM; in the assay on HS 578T breast it was 73.2 µM; with KM12 colon, above 100 µM; in the assay on MALME-3M melanoma, 87.7 µM. Besides, the TGI was above 100 µM in the assay with MDA-MB-435; 91.6 µM in the assay on NCI-H226 lung; above 100 µM in the assay on PC-3 prostate; above 100 µM with SK-MEL-28 melanoma; 57.5 µM in the assay with SN12C renal; above 100 µM with U251 CNS.
`CN(C)CCN=C1Nc2ccccc2C(=O)N2CSCC12` (stereo not given): the TGI with HCC-2998 colon, in the assay on HCT-116 colon, in the assay on HCT-15 colon, with HS 578T breast, in the assay with KM12 colon and in the assay with MALME-3M melanoma was above 100 µM in each case. Moreover, the TGI with MDA-MB-435, in the assay on NCI-H226 lung, in the assay on PC-3 prostate, in the assay with SK-MEL-28 melanoma, in the assay on SN12C renal and in the assay on U251 CNS was above 100 µM each time.
On to `CC(C(=O)O)C1Nc2ccccc2NC1=O` (stereo not given), for which the TGI in the assay on HCC-2998 colon, with HCT-116 colon, in the assay with HCT-15 colon, in the assay with HS 578T breast, in the assay on KM12 colon and in the assay on MALME-3M melanoma was above 100 µM throughout. For the same molecule, the TGI in the assay with MDA-MB-435, in the assay with NCI-H226 lung, in the assay on PC-3 prostate, with SF-539 CNS, in the assay with SK-MEL-28 melanoma and in the assay on U251 CNS was above 100 µM throughout.
For `CCOC(=O)CNC(=O)CNC(=O)CNC(=O)CNNc1c(OCc2ccccc2)c(=O)c1=O`, the TGI with HCC-2998 colon, in the assay on HCT-116 colon, with HCT-15 colon, with HS 578T breast, in the assay on KM12 colon and in the assay on MALME-3M melanoma was above 100 µM in each case. The TGI in the assay with MDA-MB-435, in the assay with NCI-H226 lung, with PC-3 prostate, in the assay on SK-MEL-28 melanoma, with SN12C renal and in the assay with U251 CNS was above 100 µM throughout.
In the case of `CCC1(CC)C(=O)NN(C(=O)c2ccc(Cl)cc2)C1=O`, the TGI with HCC-2998 colon is above 100 µM; in the assay with HCT-116 colon, above 100 µM; in the assay with HCT-15 colon, above 100 µM; in the assay on HS 578T breast it was above 100 µM; in the assay on KM12 colon, above 100 µM; with MALME-3M melanoma, 18.1 µM. Besides, the TGI in the assay on MDA-MB-435, with NCI-H226 lung, with PC-3 prostate, with SK-MEL-28 melanoma, with SN12C renal and in the assay on U251 CNS was above 100 µM throughout.
